Experimental data as given in patent US4177277A, “Method for alleviating hypertension” (E. R. Squibb & Sons, Inc., priority 1978, dated 1979).
Values after ≈ are worked out from the molar mass of the structure shown. Non-standard residues stand in square brackets, D forms with d. Residues, ends and D or L forms follow the SMILES beside them.

How the values were obtained:
[1] = target: T1, angiotensin-converting enzyme of rabbit lung (Oryctolagus cuniculus, UniProt P12822); test: Inhibition of isolated angiotensin-converting enzyme of rabbit lung (cleavage of hippuryl-L-histidyl-L-leucine); format: biochemical; conditions: 5 mM hippuryl-L-histidyl-L-leucine, pH 8.3, 30 minutes at 37° C., read-out: I50 (concentration producing a 50% inhibition of angiotensin-converting enzyme) (converted)
T1 construct: isolated angiotensin converting enzyme from rabbit lungs; from tissue; host or cells: rabbit lung
T1 sequence (P12822 34-1310): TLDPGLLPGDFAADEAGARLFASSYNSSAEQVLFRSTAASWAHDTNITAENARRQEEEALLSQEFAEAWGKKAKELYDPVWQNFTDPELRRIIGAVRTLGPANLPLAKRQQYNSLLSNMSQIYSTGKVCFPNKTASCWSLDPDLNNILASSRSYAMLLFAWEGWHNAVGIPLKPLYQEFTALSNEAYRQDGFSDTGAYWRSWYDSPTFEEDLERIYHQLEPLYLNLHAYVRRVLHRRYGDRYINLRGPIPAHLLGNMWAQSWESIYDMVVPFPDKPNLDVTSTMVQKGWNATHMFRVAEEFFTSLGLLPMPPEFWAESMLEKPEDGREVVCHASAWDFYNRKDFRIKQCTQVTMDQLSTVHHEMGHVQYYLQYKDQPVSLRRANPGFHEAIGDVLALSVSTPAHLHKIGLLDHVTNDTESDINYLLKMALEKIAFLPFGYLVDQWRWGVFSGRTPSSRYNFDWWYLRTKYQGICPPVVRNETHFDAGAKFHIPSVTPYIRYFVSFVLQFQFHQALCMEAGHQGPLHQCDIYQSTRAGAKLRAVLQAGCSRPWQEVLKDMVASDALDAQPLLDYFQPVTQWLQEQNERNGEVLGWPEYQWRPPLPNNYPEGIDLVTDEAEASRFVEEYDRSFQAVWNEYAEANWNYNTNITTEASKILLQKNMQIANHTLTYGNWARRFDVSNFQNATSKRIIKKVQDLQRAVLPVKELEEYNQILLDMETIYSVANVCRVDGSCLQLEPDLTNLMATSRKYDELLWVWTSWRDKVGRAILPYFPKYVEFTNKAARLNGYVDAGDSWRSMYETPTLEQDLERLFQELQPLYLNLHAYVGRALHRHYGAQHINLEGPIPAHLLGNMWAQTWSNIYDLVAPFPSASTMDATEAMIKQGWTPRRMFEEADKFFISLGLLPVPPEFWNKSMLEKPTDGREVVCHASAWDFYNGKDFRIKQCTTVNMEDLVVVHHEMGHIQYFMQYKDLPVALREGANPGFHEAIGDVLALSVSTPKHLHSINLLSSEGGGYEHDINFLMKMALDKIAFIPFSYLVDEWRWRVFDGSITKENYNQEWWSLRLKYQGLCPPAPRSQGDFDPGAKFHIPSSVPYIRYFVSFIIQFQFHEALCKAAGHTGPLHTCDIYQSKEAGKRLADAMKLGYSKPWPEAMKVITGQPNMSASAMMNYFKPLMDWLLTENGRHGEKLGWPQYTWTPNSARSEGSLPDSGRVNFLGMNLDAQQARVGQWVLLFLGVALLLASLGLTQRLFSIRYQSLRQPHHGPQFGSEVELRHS
Excerpt: Although conversion of angiotensin I to angiotensin II by angiotensin-converting enzyme is probably the reaction of most importance in the pathology of hypertension, the activity of the isolated enzyme is more conveniently and accurately assayed by measuring its rate of cleavage of a simpler peptide substrate, hippuryl-L-histidyl-L-leucine. […] Controls containing no inhibitor (100% activity), and those acidified before addition of the enzyme (0% activity) are similarly prepared. All of the enzymatic reations are initiated by addition of the enzyme component; tubes are incubated for 30 minutes at 37° C.; and reactions are terminated by addition of 0.25 ml. of 1 N HCl. The hippuric acid formed by action of angiotensin-converting enzyme on hippuryl-L-histidyl-L-leucine is extracted into ethyl acetate, evaporated to dryness, redissolved in water and quantitated from its absorbance at 228 nm. The percent inhibition by each concentration of compound is calculated by comparison with the 0% and 100% activity controls.

[2] = tested on: angiotensin I converting enzyme in excised guinea pig ileum; test: Inhibition of angiotensin I converting enzyme in excised guinea pig ileum (contractile activity of angiotensin I); format: cell-based; conditions: Cavia porcellus, Krebs solution at 37°, angiotensin I added after two minutes, read-out: IC50 (inhibition of the contractile activity of angiotensin I by 50%)
Method: After two minutes, angiotensin I ([…]) is added and the isotonic contractions are measured.

[3] = Fujimura et al. 1964; cited from earlier work
[4] = tested on: anesthetized normotensive rats; conditions: intravenous injection, Schulze 1972; cited from earlier work
normotensive rats = conditions: Ripa 1970; cited from earlier work
[5] = tested on: angiotensin I pressor response; test: Inhibition of angiotensin I pressor response in unanesthetized rats after oral administration; format: in vivo, rats of the Sprague-Dawley strain; conditions: unanesthetized male Sprague-Dawley rats, 0.31 μg/kg angiotensin I, 2 animals
Method: A representative compound of the present invention administered orally at doses of 10 and 100 mg/kg to unanesthetized male rats of the Sprague-Dawley strain weighing about 200 g., followed by an injection of 0.31 μg/kg of angiotensin I, indicates the following degree of inhibition obtained.

Row | Structure (SMILES) | IC50 [1] | IC50 [2] | further results
1 | N[C@@H](CS)C(=O)N1CCC[C@H]1C(=O)O [L-Cysteinyl-L-proline] (H-Cys-Pro-OH) | 36.7 µM | 23 µg/mL (≈ 105 µM) | 
2 | NCCCC(CS)C(=O)N1CCC[C@H]1C(=O)O (mixture of isomers) [1-(5-Amino-2-mercaptomethylpentanoyl)-L-proline] | 0.0691 µM | 0.47 µg/mL (≈ 1.81 µM) | 
3 | CC(S)C(=O)NCC(=O)O (stereo not shown) [2-mercaptopropionyl-glycine] |  |  | effects on blood pressure [3]: no noticeable effects on blood pressure; lowering of the blood pressure [4]: produced lowering of the blood pressure; angiotensinogen (normotensive rats): increases angiotensinogen; renin blood levels (normotensive rats): lowers renin blood levels

Continued, in another order:

Row | IC50 [1] | IC50 [2] | Structure (SMILES) | further results
4 | 1.15 µM | 0.6 µg/mL | CC(=O)NC(CS)C(=O)N1CCC[C@H]1C(=O)O (mixture of isomers) [N-Acetyl-DL-cysteinyl-L-proline] | 
5 | 72.8 µM | 23 µg/mL | CC(=O)NC(CSC(C)=O)C(=O)N1CCC[C@H]1C(=O)O (mixture of isomers) [N,S-Diacetyl-DL-cysteinyl-L-proline] | 
6 | 0.596 µM | 0.05 µg/mL (≈ 0.229 µM) | N[C@H](CS)C(=O)N1CCC[C@H]1C(=O)O [D-Cysteinyl-L-proline] (H-[dC]-Pro-OH) | % maximum inhibition of angiotensin I pressor response ([5]; 10 mg/kg orally): 62%; % maximum inhibition of angiotensin I pressor response ([5]; 100 mg/kg orally): 95%
